# Experimental data reported in patent US20260014170A1, “PRODRUGS FOR DELIVERY OF TE[…] THE CENTRAL NERVOUS SYSTEM” (The Johns Hopkins University, priority 2022, published 2026).
# Legend:
# [1] = In vitro metabolic stability in rat brain homogenates; format: in vitro ADME; details: 10 μM, 37° C., 0 hour to 1 hour, n=3
# Protocol: In vitro metabolic stability assessment was performed using brain homogenates. For the brain homogenates washed tissues were diluted 10-fold in 0.1-M potassium phosphate buffer and homogenized using a probe sonicator. […] Samples from each incubation at predetermined time points (0, 0.5, and 1h) were quenched with 3X volumes of acetonitrile containing the internal standard (IS; losartan: 0.5 μm). […] Disappearance of the intact compound and release of Testosterone were measured using liquid chromatography tandem mass spectrometry (LC-MS; full scan mode).
# The metabolic stability of prodrugs (n=3) was evaluated using rat brain homogenates. The rat brain was homogenized using 100-mM phosphate buffer with 1:10 dilution (w/v). 10 μM concentration of the compounds was incubated at 37° C. and stability was evaluated from 0 hour to 1 hour. After incubation samples were precipitated using acetonitrile containing internal standard and quantified using high-resolution LC-MS/MS.
# [2] = female rats, IN, 1.1 mg/kg equivalent of Testosterone, 1h post dose
# Protocol: All prodrugs were administered intranasally (IN) at a dose of 1.1 mg/kg equivalent of Testosterone using a formulation of 5% Tween-80, 5% DMSO and 90% PBS containing 10 mM HEPES. Blood and brain were collected after sacrificing the animals at predetermined time point. Plasma was harvested from blood by centrifugation at 3,000 RPM for 15 min and stored at −80° C. Brain tissues were harvested following blood collection and immediately snap frozen in liquid nitrogen and stored at −80° C. until LC-MS/MS analysis. Calibration standards were prepared using naïve female rat plasma or brain with additions of respective prodrugs. For quantifying the released testosterone in the pharmacokinetic samples, plasma samples (20 μL) were processed by protein precipitation method by addition of 200 μL of acetonitrile containing internal standard (losartan: 0.5 μM), followed by vortex-mixing for 30 s and then centrifugation at 10,000 RPM for 10 min at 4° C. Brain tissues were diluted 1:5 w/v with acetonitrile containing losartan (0.5 μm) and homogenized, followed by vortex-mixing and centrifugation at 10,000 RPM for 10 min at 4° C. A 50 μL aliquot of the supernatant was diluted with 50 μL of water and transferred to 250 μL polypropylene autosampler vials sealed with teflon caps. Then, 2 μL of the sample was injected into the LC-MS/MS system for analysis.
# The in vivo pharmacokinetics of prodrugs (P1, P3, P4, P5, P6, P7, P8, P9, P10, P11, P12, P13 and P14) were evaluated in female rats.
SMILES,stable in brain homogenate [1] [%],plasma levels compared with testosterone [2],stability in rat brain homogenate [1],levels of testosterone release [2]
"CC(C)OC(=O)OCO[C@H]1CC[C@H]2[C@@H]3CCC4=CC(=O)CC[C@]4(C)[C@H]3CC[C@]12C [Prodrug P1, (((8R,9S,10R,13S,14S,17S)-10,13-Dimethyl-3-oxo-2,3,6,7,8,9,10,11,12,13,14,15,16,17-tetradecahydro-1H-cyclopenta[α]phenanthren-17-yl)oxy)methyl isopropyl carbonate]",20,lower,–,–
"CN(C)CC(=O)O[C@H]1CC[C@H]2[C@@H]3CCC4=CC(=O)CC[C@]4(C)[C@H]3CC[C@]12C [Prodrug P3, (8R,9S,10R,13S,14S,17S)-10,13-Dimethyl-3-oxo-2,3,6,7,8,9,10,11,12,13,14,15,16,17-tetradecahydro-1H-cyclopenta[α]phenanthren-17-yl dimethylglycinate]",–,lower,moderately stable,–
"CC(C)[C@H](N)C(=O)N[C@@H](C(=O)O[C@H]1CC[C@H]2[C@@H]3CCC4=CC(=O)CC[C@]4(C)[C@H]3CC[C@]12C)C(C)C [Prodrug P4, (8R,9S,10R,13S,14S,17S)-10,13-Dimethyl-3-oxo-2,3,6,7,8,9,10,11,12,13,14,15,16,17-tetradecahydro-1H-cyclopenta[α]phenanthren-17-yl L-valyl-D-valinate]",–,–,–,low levels
"CN1CCN(CC(=O)O[C@H]2CC[C@H]3[C@@H]4CCC5=CC(=O)CC[C@]5(C)[C@H]4CC[C@]23C)CC1 [Prodrug P5, (8R,9S,10R,13S,14S,17S)-10,13-Dimethyl-3-oxo-2,3,6,7,8,9,10,11,12,13,14,15,16,17-tetradecahydro-1H-cyclopenta[α]phenanthren-17-yl 2-(4-methylpiperazin-1-yl)acetate]",–,–,stable,low levels
"C[C@]12CC[C@H]3[C@@H](CCC4=CC(=O)CC[C@@]43C)[C@@H]1CC[C@@H]2OC(=O)CN1CCOCC1 [Prodrug P6, (8R,9S,10R,13S,14S,17S)-10,13-Dimethyl-3-oxo-2,3,6,7,8,9,10,11,12,13,14,15,16,17-tetradecahydro-1H-cyclopenta[α]phenanthren-17-yl 2-morpholinoacetate]",–,–,stable,low levels
"C[C@]12CC[C@H]3[C@@H](CCC4=CC(=O)CC[C@@]43C)[C@@H]1CC[C@@H]2OC(=O)C(Cl)Cl [Prodrug P7, (8R,9S,10R,13S,14S,17S)-10,13-Dimethyl-3-oxo-2,3,6,7,8,9,10,11,12,13,14,15,16,17-tetradecahydro-1H-cyclopenta[α]phenanthren-17-yl 2,2-dichloroacetate]",–,–,moderately stable,–
"CN(C)CC(=O)NCC(=O)O[C@H]1CC[C@H]2[C@@H]3CCC4=CC(=O)CC[C@]4(C)[C@H]3CC[C@]12C [Prodrug P8, (8R,9S,10R,13S,14S,17S)-10,13-Dimethyl-3-oxo-2,3,6,7,8,9,10,11,12,13,14,15,16,17-tetradecahydro-1H-cyclopenta[α]phenanthren-17-yl dimethylglycylglycinate]",–,–,stable,low levels
"CN(C)CC(=O)NCC(=O)NCC(=O)O[C@H]1CC[C@H]2[C@@H]3CCC4=CC(=O)CC[C@]4(C)[C@H]3CC[C@]12C [Prodrug P9, (8R,9S,10R,13S,14S,17S)-10,13-Dimethyl-3-oxo-2,3,6,7,8,9,10,11,12,13,14,15,16,17-tetradecahydro-1H-cyclopenta[α]phenanthren-17-yl dimethylglycylglycylglycinate]",–,–,stable,–
"C[C@]12CC[C@H]3[C@@H](CCC4=CC(=O)CC[C@@]43C)[C@@H]1CC[C@@H]2OC(=O)CNC(=O)CN [Prodrug P10, (8R,9S,10R,13S,14S,17S)-10,13-Dimethyl-3-oxo-2,3,6,7,8,9,10,11,12,13,14,15,16,17-tetradecahydro-1H-cyclopenta[α]phenanthren-17-yl glycylglycinate]",–,–,moderately stable,–
"CC(C)C[C@H](NC(=O)CN(C)C)C(=O)O[C@H]1CC[C@H]2[C@@H]3CCC4=CC(=O)CC[C@]4(C)[C@H]3CC[C@]12C [Prodrug P11, (8R,9S,10R,13S,14S,17S)-10,13-Dimethyl-3-oxo-2,3,6,7,8,9,10,11,12,13,14,15,16,17-tetradecahydro-1H-cyclopenta[α]phenanthren-17-yl dimethylglycyl-L-leucinate]",–,–,stable,–
"CN(C)CC(=O)N[C@@H](Cc1ccccc1)C(=O)O[C@H]1CC[C@H]2[C@@H]3CCC4=CC(=O)CC[C@]4(C)[C@H]3CC[C@]12C [Prodrug P12, (8R,9S,10R,13S,14S,17S)-10,13-Dimethyl-3-oxo-2,3,6,7,8,9,10,11,12,13,14,15,16,17-tetradecahydro-1H-cyclopenta[α]phenanthren-17-yl dimethylglycyl-L-phenylalaninate]",–,lower,stable,–
"CC(=O)N[C@@H](CCC(=O)O[C@H]1CC[C@H]2[C@@H]3CCC4=CC(=O)CC[C@]4(C)[C@H]3CC[C@]12C)C(=O)O [Prodrug P13, (S)-2-Acetamido-5-(((8R,9S,10R,13S,14S,17S)-10,13-dimethyl-3-oxo-2,3,6,7,8,9,10,11,12,13,14,15,16,17-tetradecahydro-1H-cyclopenta[α]phenanthren-17-yl)oxy)-5-oxopentanoic acid]",–,–,stable,low levels
"C[C@]12CC[C@H]3[C@@H](CCC4=CC(=O)CC[C@@]43C)[C@@H]1CC[C@@H]2OC(=O)CC[C@H](N)C(=O)O [Prodrug P14, (S)-2-Amino-5-(((8R,9S,10R,13S,14S,17S)-10,13-dimethyl-3-oxo-2,3,6,7,8,9,10,11,12,13,14,15,16,17-tetradecahydro-1H-cyclopenta[α]phenanthren-17-yl)oxy)-5-oxopentanoic acid]",–,–,stable,low levels
